Data published in patent US20240316196A1, “METHODS AND COMPOSITIONS FOR DIFFERENTIATION OF PLURIPOTENT STEM CELLS AND DERIVED NATURAL KILLER CELLS” (NUWACELL BIOTECHNOLOGIES CO., LTD., priority 2022, published 2024).

How the values were obtained:
[1] = system: hiPSCs; assay: Directed differentiation of hiPSCs into HE (KDR+), HP (CD34+) and iNK (CD56+) cells, flow cytometry; format: cell-based, human; conditions: for output of CD34^+ HP cells / output of CD56^+ iNK cells: added during Stage 1-4 (XAV939 5 μM, SB431542 6 μM); for output of CD34^+ HP cells: Day 10, vs control without both (FIG. 8A); for output of CD56^+ iNK cells: Day 25, vs control without both (FIGS. 8B, 8C)
Method: hiPSCs were prepared as described in CN108373998B. The effect of plate coating during Stage 2 on iNK differentiation was further evaluated. On Day −1, Embryoid body (EB) formation (Stage 1-1) was carried out by placing individualized hiPSCs in E8 medium containing 10 μM Blebbistatin in T25 flasks on a bellydancer and culture overnight. On Day 0, lateral mesoderm differentiation (Stage 1-2) was initiated by changing the medium to a Stage 1-2 differentiation medium comprising CD34A basal medium and supplemented with BMP4 (25 ng/mL), VEGF (15 ng/mL), bFGF (0.5 ng/mL) and CHIR99021 (4 μM) for 2 days. On Day 2, lateral mesoderm differentiation (Stage 1-3) continued for 1 day in a Stage 1-3 differentiation medium comprising CD34A basal medium and supplemented with BMP4 (25 ng/mL), VEGF (15 ng/mL) and bFGF (0.5 ng/mL) and CHIR99021 (4 μM). On Day 3, HE specification (Stage 1-4) was initiated by adding a Stage 1-4 differentiation medium comprising CD34A basal medium and supplemented with insulin (5 μg/mL), VEGF (15 ng/mL), bFGF (5 ng/mL), SB431542 (6 μM) for 1 day. On Day 4 (the end of Stage 1-4), HP differentiation (Stage 1-5) in was initiated by adding a Stage 1-5 differentiation medium comprising CD34A basal medium and supplemented with SCF (10 ng/mL), Flt3L (10 ng/mL), VEGF (15 ng/mL) and bFGF (5 ng/mL). To initiate the differentiation from HP cells into iNK cells (Stage 2), EBs of Day 11 were collected and seeded in 24-well-plates without matrix or coated with DLL4 and VCAM1, in a Stage 2 differentiation medium comprising NKSFM and supplemented with SCF (20 ng/mL), Flt3L (10 ng/mL), IL-7 (25 ng/mL), IL-3 (5 ng/mL), IL-15 (10 ng/mL) for 14 days. On Day 25 (Stage 2-wk2), derived cells were counted and stained with CD56-PE antibody, the percentage of CD56+ iNK cells was detected by flow cytometry. […] The differentiation from hPSCs to immature iNK cells was accomplished in only 26 days. Furthermore, the percentage of CD56+CD3−iNK cells at the end of Stage 2 is as high as 80.56% when differentiation was performed with NKSFM and DLL4/VCAM1.
hiPSCs were prepared as described in CN108373998B. On Day −1, Embryoid body (EB) formation (Stage 1-1) was carried out by placing individualized hiPSCs in E8 medium containing 10 μM Blebbistatin in T25 flasks on a bellydancer and culture overnight. On Day 0, lateral mesoderm differentiation (Stage 1-2) was initiated by changing the medium to a Stage 1-2 differentiation medium comprising IF-4 basal medium and supplemented with BMP4 (25 ng/mL), VEGF (50 ng/mL), bFGF (0.5 ng/mL) and CHIR99021 (4 μM) for 2 days. On Day 2, lateral mesoderm differentiation (Stage 1-3) continued for 1 day in a Stage 1-3 differentiation medium comprising IF-4 basal medium and supplemented with BMP4 (25 ng/mL), VEGF (50 ng/mL) and bFGF (0.5 ng/mL) and CHIR99021 (1 μM). On Day 3, HE specification (Stage 1-4) was initiated by adding a Stage 1-4 differentiation medium comprising IF-4 basal medium and supplemented with VEGF (50 ng/mL), bFGF (5 ng/mL), and without or with XAV939 (5 μM) and/or SB431542 (6 μM) for 1 day. On Day 4, HP differentiation (Stage 1-5) was initiated by adding a Stage 1-5 differentiation medium comprising NKSFM and supplemented with SCF (50 ng/mL), Flt3L (10 ng/mL), VEGF (15 ng/mL) and bFGF (5 ng/mL) for 6 days. On Day 10 (the end of Stage 1), EBs were dissociated into single cells and stained with CD34-APC antibody (BD, #555824), the percentage of CD34^+ HP cells was detected by flow cytometry. To initiate the differentiation from HP cells into iNK cells (Stage 2), EBs were collected and seeded in 24-well-plates coated with matrix proteins, DLL4 and VCAM1, in a Stage 2 differentiation medium comprising NKSFM and supplemented with SCF (20 ng/mL), Flt3L (10 ng/mL), IL-7 (25 ng/mL), IL-3 (5 ng/mL), IL-2 (700 IU/mL), IL-15 (10 ng/mL) for 15 days. On Day 25 (the end of Stage 2), derived cells were counted and stained with CD56-PE antibody (BD, #555516), the percentage of CD56^+ iNK cells was detected by flow cytometry. […]

[2] = system: PBNK cells; assay: Expansion of PBNK cells from PBMCs (NK cell expansion fold; CD56+CD3− % by flow cytometry); format: cell-based; conditions: NAM 0-5 mM in basal medium
Method: The effect of the concentration of nicotinamide (NAM) in an exemplary basal medium on NK cell expansion was evaluated. The above basal medium comprised the following components: IMDM (Sigma): RPMI1640 (Gibco) (50%: 50%); about 1.3 ng/mL of Cupric sulfate, about 3 μM of Ferric sulfate, about 0.432 μg/mL of Zinc sulfate, about 1-50 ng/mL of Na Selenite, about 110 μg/mL of Sodium pyruvate, 0.1-20 μg/mL of Insulin, 1-200 μg/mL of Transferrin, about 1%(v/v) of GlutaMAX-1, 0.1-20 mg/mL of HSA, 1-400 μM of MTG, about 80 μg/mL of Ascorbic acid and indicated concentration of NAM. Peripheral blood mononuclear cells (PBMCs) were isolated by density gradient centrifugation using Ficoll-Paque. On Day 0, PBMCs were plated at 1×10^6 cells/mL in a 48-well-plate in the basal medium with NAM (either 0, 1, 2, 2.5, 3, 3.5, 4, or 5 mM) and stimulated with the following reagents for 3 days: immobilized CD16 antibody (Biolegend, 302014) (135 ng/cm^2), IL-2 (700 IU/mL), IL-15 (10 ng/mL) and OK432 (0.01 KE/mL). On day 3, cells were re-suspended in the above basal medium supplemented with IL-2 (700 IU/mL) and IL-15 (10 ng/mL). Fresh medium was added every other day to maintain cell density below 2×10^6 cells/mL. Cells were collect on Day 14 and stained with CD56-PE and CD3-PerCP-Cy5.5 antibodies, the percentage of CD56^+CD3^− NK cells was analyzed by flow cytometry.
The effect of heparin sodium concentration in an exemplary NKSFM on NK cell expansion was also evaluated. NKSFM comprised the following components: IMDM (Sigma): DMEM/F12 (Gibco) (50%: 50%); about 20 μM of Ethanolamine, about 1-50 ng/mL of Na Selenite, about 110 μg/mL of Sodium pyruvate, 0.1-20 μg/mL of Insulin, 1-200 μg/mL of Transferrin, about 1%(v/v) of GlutaMAX-1, 0.1-20 mg/mL of Human serum albumin, 1-400 μM of MTG, about 80 μg/mL of Ascorbic acid, about 1-5 mM of NAM, 4%(v/v) of PLT, and indicated concentration of heparin sodium. PBMCs were isolated by density gradient centrifugation using Ficoll-Paque. On Day 0, PBMCs were plated at 1×10^6 cells/mL in a 48-well-plate in NKSFM with heparin sodium (0, 0.5, 1, 3, 10, 30, or 50 μg/mL) and stimulated with the following reagents for 3 days: immobilized CD16 antibody (Biolegend, 302014) (135 ng/cm^2), OK432 (0.01 KE/mL), NeoIL-2 (50 ng/mL), IL-12 (10 ng/mL), IL-18 (50 ng/mL). […] Cells were collect on Day 13 and stained with CD56-PE and CD3-PerCP-Cy5.5 antibodies, the percentage of CD56^+CD3^− NK cells was analyzed by flow cytometry. The specific lysis of K562 tumor cells by NK cells were assessed by CFSE/7-AAD cytotoxicity assay. […] After incubation for 4 hours, cells were stained with 7-AAD (Live/dead staining) and analyzed with flow cytometry.
The effect of PLT percentage (v/v) in an exemplary NKSFM on NK cell expansion was evaluated. […]

[3] = higher VEGF concentration during Stage 1-5

Oc1nc(-c2ccc(C(F)(F)F)cc2)nc2c1CSCC2 [XAV939]
output of CD34^+ HP cells [1]: significantly promotes | output of CD56^+ iNK cells [1]: significantly promotes

Cc1c[nH]c(-c2cnc(NCCNc3ccc(C#N)cn3)nc2-c2ccc(Cl)cc2Cl)n1 [CHIR99021]
differentiation into CD34+ HP cells ([1]; higher concentration during Stage 1-2 (5, 6, 7, 8 μM), Day 7 (FIG. 9A)): generally more advantageous | differentiation into CD56+ iNK cells ([1]; higher concentration during Stage 1-2 (5, 6, 7, 8 μM), Day 24 (FIGS. 9B, 9C)): somewhat disadvantageous | differentiation into CD34+ HP cells ([1]; lower concentration during Stage 1-3 (0-4 μM), Day 7 (FIG. 10A)): somewhat disadvantageous | differentiation into CD56+ iNK cells ([1]; lower concentration during Stage 1-3 (0-4 μM), Day 24 (FIGS. 10B, 10C)): generally more advantageous

NC(=O)c1ccc(-c2nc(-c3ccc4c(c3)OCO4)c(-c3ccccn3)[nH]2)cc1 [SB431542]
output of CD34^+ HP cells [1]: improvement in increasing CD34^+ HP cell production at a certain degree | output of CD56^+ iNK cells [1]: does not show any improvement

NC(=O)c1cccnc1 [NAM, nicotinamide]
NK cell expansion fold, effect of concentration ([2]; Day 14 (FIG. 2A)): significantly impacts | percentage of CD56^+CD3^− NK cells, effect of concentration ([2]; Day 14 (FIG. 2B)): minimal effects

VEGF
HP and iNK cell differentiation ([1]; Example 12: higher concentration during Stage 1, especially Stage 1-2, 1-3 and 1-4 (Table 3.2, FIG. 12)): significantly improves | percentage of KDR+ HE cells, effect of concentration ([1]; VEGF 15-100 ng/mL in Stage 1 substages (Table 3.1), Day 4 (FIG. 11A)): minimal effects | percentage of CD34+ HP cells, effect of concentration ([1]; VEGF 15-100 ng/mL in Stage 1 substages (Table 3.1), Day 10 (FIG. 11B)): significantly impacts | efficiency of further differentiation into iNK cells, effect of concentration ([1]; VEGF 15-100 ng/mL in Stage 1 substages (Table 3.1), Day 24 morphology (FIG. 11C)): significantly impacts | differentiation into HP cells and iNK cells ([1]; higher VEGF concentration during Stage 1-2 and Stage 1-3): generally beneficial | differentiation into HP cells [1, 3]: generally beneficial | differentiation into iNK cells [1, 3]: not into iNK cells
